{"source": "paper PMC6222891", "about": "“Bioinspired Honokiol Analogs and Their Evaluation for Activity on the Norepinephrine Transporter” (Molecules : A Journal of Synthetic Chemistry and Natural …, 2018)"}
{"biological_target": "T1, human norepinephrine transporter (hNET) (Homo sapiens, UniProt P23975)", "T1 construct": "expressed in transfected cells", "T1 sequence (P23975 whole entry)": "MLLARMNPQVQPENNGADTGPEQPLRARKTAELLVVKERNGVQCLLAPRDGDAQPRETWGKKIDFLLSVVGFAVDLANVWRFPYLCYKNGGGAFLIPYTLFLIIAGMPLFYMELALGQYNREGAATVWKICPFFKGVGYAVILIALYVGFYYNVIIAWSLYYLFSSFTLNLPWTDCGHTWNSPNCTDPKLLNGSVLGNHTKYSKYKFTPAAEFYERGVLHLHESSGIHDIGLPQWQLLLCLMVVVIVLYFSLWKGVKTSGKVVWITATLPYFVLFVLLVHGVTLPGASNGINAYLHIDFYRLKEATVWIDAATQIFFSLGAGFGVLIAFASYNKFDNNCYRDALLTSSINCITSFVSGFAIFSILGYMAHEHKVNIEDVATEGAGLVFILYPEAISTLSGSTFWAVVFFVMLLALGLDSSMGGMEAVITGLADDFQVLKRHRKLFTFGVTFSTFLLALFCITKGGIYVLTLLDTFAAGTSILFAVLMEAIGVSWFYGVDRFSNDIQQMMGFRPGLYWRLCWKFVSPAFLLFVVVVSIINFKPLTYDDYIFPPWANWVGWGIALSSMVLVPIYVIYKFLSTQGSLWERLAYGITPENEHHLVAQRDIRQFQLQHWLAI", "assay": "fluorescent neurotransmitter transporter uptake assay (plate reader)", "format": "cell-based", "conditions": "HEK-hNET-hVMAT2-mCherry cells; compounds selected for follow-up assays", "procedure": "Cell line: All screening was done in a line of human embryonic kidney cells stably expressing the human norepinephrine transporter and the vesicular monoamine transporter 2 (HEK-hNET- -hVMAT2-mCherry). Human VMAT2 expression, in addition to hNET, more fully recapitulates a neuronal phenotype in cell culture. Cells were imaged and fully characterized for functionality (Figure 1). […] Screening: Synthesized compounds were tested for interaction with NET via a three-step process. First, all compounds were tested using a commercially available fluorescent assay (neurotransmitter transport uptake kit, Molecular Devices, San Jose, CA, USA) for the assessment of plasmalemmal monoamine transport ability. Cells were plated in poly-D-lysine (PDL)-coated 96-well plates (Corning Inc., Corning, NY, USA) to 100% confluence. The following day, cell media (DMEM, 10% fetal bovine serum, 1% penicillin/streptomycin) was removed, and experimental media (Hank’s balanced salt solution, Sigma-Aldrich) was added. […] Plates were incubated for 1 h, then read on a fluorescent plate reader (Thermo Fisher). Experiments were conducted in triplicate. […] Cells were plated to confluence in 48-well PDL-coated plates the day prior to the experiment. For experiments, media was removed, cells were rinsed with phosphate buffered saline (PBS), and incubated with or without compounds or desipramine (10 nM to 10 μM, non-specific uptake measured by addition of 100 μM desipramine) for ten minutes at 37 °C. Dopamine (1 μM total concentration with 200 nM ^3H-dopamine tracer) was added and uptake proceeded for 10 min at 37 °C. Cells were then rinsed three times with PBS, lysed with 0.1 N NaOH, and measured via liquid scintillation counting (Beckman Coulter, Brea, CA, USA). Finally, each selected compound was visualized with high-content imaging using the Array Scan VTI HCS (Cellomics). Cells were seeded to 80% confluence in PDL-coated, glass-bottom 96-well plates. Media was removed and DMEM without phenol red with or without compounds or desipramine (10 nM to 10 μM) was added. Following a one-hour incubation, cells were imaged. Forty-nine contiguous fields per well were taken and total fluorescence in the green channel was reported.\nFigure 1 Plate reader-based fluorescent assay using human NET in a validation assay of the scree-ning strategy using the known NET inhibitor desipramine as a positive control. […] (C) Finally, uptake was visualized using high content imaging with the Array Scan VTI HCS (Cellomics, Thermo Fisher Scientific, Waltham, MA, USA) to visualize nuclei (stained with DAPI), VMAT2-mCherry, and dye. All experiments were conducted in triplicate and analyzed with nonlinear regression analysis in GraphPad Prism (GraphPad Software, La Jolla, CA, USA). Scale: […]."}
{"smiles": "C=CCc1cc(NC(C)=O)c(O)c(-c2ccc(OC)c(CC=C)c2)c1", "note": "[Compound H8]", "modulation of transport activity in the fluorescent screen (ranking)": "most potent modulators of transport activity"}
{"smiles": "CCCc1ccc(OC)c(-c2ccc(OC)c(CCC)c2)c1", "note": "[Compound H20]", "modulation of transport activity in the fluorescent screen (ranking)": "most potent modulators of transport activity"}
{"smiles": "CC(C)(C)c1ccc(O)c(-c2cc(C(C)(C)C)ccc2O)c1", "note": "[Compound M6]", "modulation of transport activity in the fluorescent screen (ranking)": "most potent modulators of transport activity"}
{"smiles": "C=CCc1ccc(OC)c(-c2ccc(OC)c(CC=C)c2)c1", "note": "[Compound H16]", "modulation of transport activity in the fluorescent screen (ranking)": "most potent modulators of transport activity"}
{"smiles": "C=CCc1cc(Cc2cccc(CC=C)c2OC)ccc1OC", "note": "[Compound C4a, 3,3′-Diallyl-2,4′-dimethoxy-diphenyl-methan]", "modulation of transport activity in the fluorescent screen (ranking)": "most potent modulators of transport activity"}
{"smiles": "C=CCc1ccc(O)c(-c2ccc(OC)c(CC=C)c2)c1", "note": "[Compound H11, 4′-O-methylhonokiol]", "modulation of transport activity in the fluorescent screen (ranking)": "most potent modulators of transport activity"}
